Experimental data: a melting point compilation (Tetko et al.; mined from patent text by program, amines drawn as free bases though some values may be those of a salt)

Structure (SMILES)	melting point
N#CSc1nc(Cl)ncc1F	103 to 104 °C
O=C1NCc2c1cc1ccc3c(c1c2-c1ccc(F)cc1)OCO3	294 to 297 °C
Cc1[nH]c2ccc(O)cc2c1C(=O)NC1CCN(CCc2ccccc2)CC1	232 to 236 °C
CCOc1nc(C(F)(F)F)cc(=O)n1-c1cc(OCCON=C(C)C)c(Br)cc1F	131 to 132 °C
COc1ccc(COCCC(C)=O)cc1	48 to 49 °C
COC(=O)Cn1c(=O)n(C)c(=O)n(-c2cc(F)ccc2[N+](=O)[O-])c1=O	122 °C
CCn1c(=O)c2c(nc(/C=C/c3ccc(O)cc3)n2C)n(CC)c1=O	> 270 °C
CCc1c(Cl)sc2[nH]c(=O)c(=O)[nH]c12	282 to 284 °C
CCC12CCC(=O)C=C1c1c(cc(OCC(=O)OCC(C)=O)c(Cl)c1Cl)C2 (configuration not stated)	153 to 155 °C
CCc1c(Cl)nc(Cl)nc1N(C=O)c1cc(C)cc(C)c1	124 to 125 °C
O=C(OC(=O)c1cn(-c2ccccc2)nc1-c1ccc([N+](=O)[O-])o1)c1cn(-c2ccccc2)nc1-c1ccc([N+](=O)[O-])o1	262 to 264 °C
COC(=O)c1sc2ccc(NC(C)=O)cc2c1N	248 °C
CCOC(=O)c1c(CCCn2cncn2)nc2cc(OC)c(OC)cc2c1-c1ccc(OC)c(OC)c1	141 to 142 °C
N#CC1=C2N(Cc3ccc(Cl)nc3)CCN2C2CCC1O2 (configuration not stated)	125 to 127 °C
Cc1ccn2c(=O)c(CCN3CCN(c4ccc(Cl)cc4)CC3)c(C)nc2c1	156 to 157 °C
CC(=O)N(C)c1cccc(C(=O)C=CN(C)C)c1	146 to 148 °C
COc1nc2ccnn2c2ncccc12	154 °C
Fc1cc(-n2cc(CN=C=S)nn2)cc(F)c1N1CCOCC1	135 °C
CCCCCCCC[C@H](N[C@@H](C)C(=O)O)C(=O)OCC	127 to 128 °C
Cc1ccc(S(=O)(=O)n2c(I)cc3cccnc32)cc1	105 to 107 °C
Cc1c(O)cccc1Br	89 °C
COC(=O)N1CC(=O)Nc2cccc(F)c21	170 to 172 °C
COC(=O)c1ccc(-c2nc(C(N)=O)c3[nH]c(=O)n(-c4ccccc4OC)c3n2)cc1	286 to 290 °C
Cc1c(N)nc(=S)n(C)c1N	178 °C
CSC[C@H](NC(C)=O)C(=O)N(C)N	156 to 157 °C
CCOC(=O)CN(CC=CC(=O)Nc1cc2c(Nc3ccc(F)c(Cl)c3)ncnc2cc1OCC1CC1)CCOC(C)=O	90 to 92 °C
N#Cc1cc2cccnc2nc1Cl	273 °C

Structure (SMILES)	melting point
CCC(CC)Nc1cc(C)nc(Oc2c(C)cccc2C)c1N	98 to 100 °C
COc1ccc2c(c1)Sc1c(cc(OC)c(OC(C)=O)c1Br)N2C	189 to 190 °C
CCOC(=O)c1cc2c(cn1)[nH]c1ccc(N)c(N3CCCCC3)c12	188 to 190 °C
Cc1nc(CS(C)(=O)=O)nc(OC(=O)NN2CC(C)OC(C)C2)c1C (configuration not stated)	103 °C
COc1ccc(-c2c3c(cc4ccc(O)cc24)-c2ccc(O)cc2CO3)cc1OC	245 to 248 °C
CC(=O)N1CCc2cc(CCN3CCC(c4noc5cc(F)ccc45)CC3)sc2C1	130 to 132 °C
CCC1Nc2cc(F)ccc2-n2cccc21 (configuration not stated)	49 to 51 °C
Cc1cc(N=Nc2ccccn2)cc(C)c1-c1ccc(-c2c(C)cc(N=Nc3ccccn3)cc2C)o1	206 to 207 °C
CCOCc1nc2c(N)nc3cc(OCCCN4CCCC4=O)ccc3c2n1CCCCNC(=O)OC(C)(C)C	134 to 136 °C
Nc1cc(Cl)c(Cl)c(Br)c1[N+](=O)[O-]	132 to 134 °C
C[C@H](Cc1ccc2c(c1)cc(C(=O)O)n2CC1CC1)NC[C@H](O)c1cccc(Cl)c1	207 to 209 °C
Clc1ccc2scc(-c3ccncc3)c2c1	90 to 91 °C
COc1cc(COc2cc(N)c(Cl)cc2C(=O)CCCCN2CCC(C)CC2)cc(OC)c1	136 to 137 °C
CCCc1nnc2n1-c1ccc(Br)cc1C(c1ccccn1)=NC2	184 to 186 °C
CC1(C(=O)NCC(=O)O)CC1(Cl)Cl (configuration not stated)	139 to 140 °C
CC(C)(C)NC(=O)C1C(C=C(Cl)Cl)C1(C)C (configuration not stated)	108 to 109 °C
OC(CCCN1CCCCC1)c1ccc2c(c1)Cc1cc(C(O)CCCN3CCCCC3)ccc1O2 (configuration not stated)	145 to 146 °C
CCCCCCCCCCC(=O)C(=O)CCCCCCCCCC	68.5 to 69 °C
NCc1nnc(-c2ncn3c2[C@@H]2CCN2C(=O)c2sccc2-3)o1	233 to 235 °C
COc1ccc(C2COc3c(ccc(O)c3C)C2)cc1 (configuration not stated)	140 to 141 °C
CC(C)c1nccn1N=Cc1cc(C(C)(C)C)c(O)c(C(C)(C)C)c1	159 to 160 °C
CN(C)C12CC3CC(CC(O)(C3)C1)C2	60 to 64 °C
CS/C(NC(=O)c1ccc(SC)cc1)=C(\C#N)C(=O)Nc1ccc(C)cc1	173 to 175 °C
COC1(OC)C=Cc2cc(Cc3cnc(N)nc3N)cc(OCC3CC3)c2O1	204 to 206 °C
COc1cnnc(Cl)c1	98 to 100 °C
CSC(=S)NCCNC(C)=O	139 to 140 °C
CNC1=C([N+](=O)[O-])C(=O)NC1=Cc1ccccc1	238 °C

Other lines, results leading:

melting point	Structure (SMILES)
134 °C	CC(C)(C)NC(=O)c1ccc(S(=O)(=O)N2C(=O)C(C)(c3ccccc3Cl)c3cc(OCC(F)(F)F)ccc32)cc1 (configuration not stated)
> 300 °C	O=C(O)c1cccc2c1Cc1c-2[nH]c2ccc(F)cc12
> 300 °C	O=C(CC(=O)Nc1ccc2c(c1)NC(=O)/C2=C\c1ccc[nH]1)Nc1ccc(F)cc1
97 to 99 °C	NC(=O)N(O)CC#CCOc1ccccc1
227 °C	Cn1c(=O)n(Cc2ccccc2)c(=O)c2cc(C(=O)O)ccc21
127 to 129 °C	Cn1ccnc1CCNC(=O)c1ccccc1NS(=O)(=O)c1cccc(C(F)(F)F)c1
138 °C	CC(=O)Cn1cnc2c1c(=O)n(CC1CC1)c(=O)n2Cc1ccccc1
97 to 100 °C	CON=C(C1=NCCO1)c1ccccc1Oc1ccc(C(F)(F)F)cn1
91 °C	CCCCCCCC(=O)N(C)Cc1cccc(-c2ccc(C=CC(=O)O)c(F)c2)c1
174 to 175 °C	O=C(NCc1ccccc1)N1CC(Oc2cccc(C(F)(F)F)c2)C1
219 to 221 °C	CCCC(=O)N(NC(N)=S)c1ccccc1
96 to 98 °C	Cc1ccc(S(=O)(=O)O[C@H](Cc2ccccc2)C(=O)NCCc2ocnc2C(=O)OCc2ccccc2)cc1
138 to 139 °C	COc1ccc(OCCOc2ccc(C(=O)C(=O)O)cc2)cc1
218 °C	COC(=O)c1cccc(C2C(C(=O)c3ccc(OC)cc3)=C(O)C(=O)N2c2nnc(C)s2)c1 (configuration not stated)
95 to 97 °C	CC(NC(=O)c1cc(OCC(F)(F)F)ccc1OCC(F)(F)F)C1CCCCN1 (configuration not stated)
186 °C	N#Cc1cc(C(=O)Nc2ccc(F)cn2)nc(C(F)(F)F)c1
151 to 155 °C	CCOC(=O)NNc1ccnc2c(NC(=O)c3c(Cl)cccc3Cl)cccc12
117 °C	CC(O)C(CCCc1ccccc1)n1ncc2c(=O)[nH]c(Cc3ccc(Br)cc3)nc21 (configuration not stated)
132 to 138 °C	CC(C)C(=O)N(O)C(C)c1cc2ccccc2s1 (configuration not stated)
129 to 132 °C	O=C1N(c2ccccc2Br)Cc2cnc(Nc3ccccc3)nc2N1c1ccc(CO)cc1
182 to 185 °C	CN(CCc1ccccc1)C(=O)Cn1cc(C(=O)O)c2cc(OCc3ccccc3)ccc21
130 °C	OC1(COc2cccc3ccccc23)CCN(Cc2ccccc2)C1 (configuration not stated)
164 to 166 °C	Cn1c2ccccc2c2cc(C(=O)C(C)(C)N3CCOCC3)ccc21
155 to 157 °C	COC(=O)/C=C/c1c(-c2ccc(F)cc2)c2ccccc2n1C(C)C

melting point	Structure (SMILES)
129 to 130 °C	O=Cc1cccc(-c2nnc(-c3ccc(C(F)(F)F)cc3)o2)c1
107 to 110 °C	COC(=O)C1Oc2ccccc2Cc2ccccc2O1
84.9 to 85 °C	CC(=O)Oc1ccc(/C=C/c2cc(C)cc(C)c2)cc1
160 to 161 °C	COc1ccc(CN2C(=O)c3ccccc3C2=O)cc1OC
137 to 142 °C	COc1ccc(S(=O)(=O)Nc2ccccc2/C=C/c2ccccn2)cc1
119 to 121 °C	CC1(CC(=O)O)SCCC2=C1Cc1ccccc12 (configuration not stated)
162 to 163 °C	O=C1c2ccccc2C(=O)N1CC(Br)(CBr)c1ccccc1 (configuration not stated)
109 to 110 °C	Cc1oc(-c2ccccc2)nc1CCOc1ccc(CCC#N)cc1
174 to 175 °C	CCCc1c[nH]c([C@@H]2Cc3ccccc3N2C(C)=O)n1
120 to 122 °C	CCC(O)c1cc(C(=O)OC)c(NC(C)=O)cc1C(F)(F)F (configuration not stated)
191 to 195 °C	COc1ccc(N2C(=O)[C@H]([C@@H](C)O)[C@H]2S(=O)(=O)c2ccccc2)cc1
222 to 226 °C	CC(=O)c1ccc(-c2cc(-c3nc4ccccc4c(=O)n3-c3ccc(Cl)cc3)sc2N2CCOCC2)cc1
258 to 260 °C	O=C1CCC(N2Cc3c(OCC4Cc5ccccc5O4)cccc3C2=O)C(=O)N1 (configuration not stated)
144 °C	CC1(O)CC(=O)OC(CCc2ccc(OCc3ccc(F)cc3)cc2)C1 (configuration not stated)
230 to 234 °C	Cc1ccc(NC(=O)c2cccc(C(F)(F)F)c2)cc1/C=C/n1cnc2c(Nc3ccc(P(C)(C)=O)cc3)ncnc21
156 °C	O=C(O)c1cccc(OCC(=O)C23CC4CC(CC(C4)C2)C3)c1
82 to 83 °C	CCOC(=O)C(Cc1ccc(OC)c(OC)c1)NC(=O)c1ccccc1 (configuration not stated)
114 °C	CC(C)C(=O)Nc1ccccc1C(F)(F)F
96 °C	O=C(Nc1ccc2c(c1)CC(NS(=O)(=O)c1ccccc1)C2)c1ccccc1-c1ccc(C(F)(F)F)cc1 (configuration not stated)
150 °C	COCCOc1cc(C(O)C#Cc2ccc(C(=O)O)cc2)cc2c1C(C)(C)CCC2(C)C (configuration not stated)
143 to 146 °C	CCc1cc2c(ccc(=O)n2Cc2ccc(C(=O)O)cc2)c(CC)n1
148 to 149 °C	CCn1c2ccc3ccccc3c2c2cccc(C=O)c21
129 to 131 °C	COc1cc(C(=O)c2ccccc2Cl)cc([N+](=O)[O-])c1O
55 °C	CCNc1nc(NCc2ccc(NC(=O)C3CCN(Cc4ccccc4)CC3)cc2)c2ccc(C)cc2n1
